This is an account of results in ChEMBL document CHEMBL1151139, “Bullatacin, bullatacinone, and squamone, a new bioactive acetogenin, from the bark of Annona squamosa” (J Nat Prod, 1990).

In one data set the test system is HT-29. As to the kind of experiment: Cytotoxicity against human HT-29 cells. As to conditions: read-out: ED50 (the source's name). It counts as functional.
The test system of a further data set is A549. As to the kind of experiment: Cytotoxicity against human A549 cells. It counts as functional. Conditions: for EC50: Homo sapiens, A549, read-out: ED50 (the source's name).
The subject of data set [1] is MCF7. As to the kind of experiment: Cytotoxicity against human MCF7 cells. It counts as functional. Conditions: for EC50: Homo sapiens, MCF7, read-out: ED50 (the source's name).
Data set [2] in a line: Toxicity against brine shrimp. It counts as organism-based. As to conditions: artemia, in vivo; read-out: ED50 (the source's name).
Data set [3] deals with MCF7. As to the kind of experiment: Selectivity index, ratio of IC50 for human HT-29 cells to IC50 for human MCF7 cells. It counts as functional.
The test system of data set [4] is MCF7. As to the kind of experiment: Selectivity index, ratio of IC50 for human A549 cells to IC50 for human MCF7 cells. It counts as functional.

SMILES strings stand for the structures. In brackets after ≈: the same amount, converted by molar mass.

Take `COc1cccc2c1C(=O)c1c(O)c3c(c(O)c1C2=O)C[C@@](O)(C(=O)CO)C[C@@H]3O[C@H]1C[C@H](N)[C@H](O)[C@H](C)O1` [DOXORUBICIN]: the EC50 is 0.0301 µg/mL (≈ 0.0554 µM) in the data set with HT-29, 0.00696 µg/mL (≈ 0.0128 µM) with A549 and 0.029 µg/mL (≈ 0.0534 µM) in the data set on MCF7 [1].
On to `CCCCCCCCCCCC[C@H](O)[C@@H]1CC[C@@H]([C@@H](O)CCCCCC(=O)CCCCC2CC(CC(C)=O)C(=O)O2)O1` (some centres undefined) [SQUAMONE], for which the EC50 in the data set with HT-29 is 1.5 µg/mL (≈ 2.52 µM). In addition, in data set [2], the LC50 turned out to be 2.1 µg/mL (≈ 3.53 µM).
In the case of `CCCCCCCCCC[C@H](O)[C@H]1CC[C@H]([C@H]2CC[C@H]([C@H](O)CCCCCCCCCC[C@@H]3CC(CC(C)=O)C(=O)O3)O2)O1` (some centres undefined) [BULLATACINONE], in the data set with HT-29, the EC50 was < 0.001 µg/mL. The ED50 is 1.44 ×10⁻⁴ ug/ml with A549 and <1 ×10⁻⁷ ug/ml with MCF7 [1].
In the case of `CCCCCCCCCCCC[C@H](O)[C@@H]1CC[C@@H]([C@@H](O)CCCCCC(O)CCCCC2CC(CC(C)O)C(=O)O2)O1` (some centres undefined) [TETRAHYDROSQUAMONE], the EC50 in the data set on HT-29 was found to be 0.298 µg/mL (≈ 0.498 µM); in the data set with A549, 0.141 µg/mL (≈ 0.235 µM); in the data set with MCF7 [1] it was 0.00989 µg/mL (≈ 0.0165 µM). Moreover, the LC50 in data set [2] came to 2.7 µg/mL (≈ 4.51 µM). For the same compound, the “Ratio ED50” value in the data set with MCF7 [3] and in the data set on MCF7 [4] was 100 throughout.
